From patent publication US11198869B2, “Angelman syndrome antisense treatment” (The Texas A&M University System, priority 2017, dated 2021)

What was measured:
Assay type in all cases: cell-based, human
UBE3A-AS [1] = assay: UBE3A-AS steady state RNA dose response in Angelman syndrome iPSC-derived neurons; conditions: for IC50: six days following treatment, 10-point dose curve, read-out: potency (IC50), UBE3A-AS
Description: The steady state RNA levels of target transcripts were measured using TaqMan quantitative reverse-transcription PCR (qRT-PCR) assays. Total reaction volume was 10 uL, including 2 μl of cDNA, 1× Gene Expression Master mix (4369016, Thermo Fisher Scientific, Waltham, Mass.), and 1× TaqMan primer assay (Thermo Fisher Scientific). Cycling conditions were 2 minutes at 50° C., 10 minutes at 95° C., and 40 cycles of 15 seconds at 95° C. and 1 minute at 60° C., with readings taken at the 60° C. step of every cycle. Reactions were run on a BIO-RAD T1000 CFX96 thermocycler (Bio-Rad Laboratories, Hercules Calif.), with internal control (PPIA, Hs99999904_m1, Thermo Fisher Scientific) and target [UBE3A-AS, Hs01372957_m1; SNORD116-11, Hs04275268_gH; SNORD115, Hs04275288_gH; IPW, Hs03455409_s1; SNORD109A/B, AP47WVR (Thermo Fisher Scientific); UBE3A: forward […] (SEQ ID NO:500); reverse: […] (SEQ ID NO:501); and, probe: […] (SEQ ID NO:502)] reactions performed together. Data was retrieved and analyzed with the BIORAD CFX Maestro software (Bio-Rad Laboratories). Samples with internal control Cq values ≥30 were filtered. Quality of data was visually inspected to identify discrepancies between technical and/or plate replicates. Measurements for inferential statistics and descriptive statistics consist of ΔΔCq values (2^−ΔΔCq=2^−(Cq[target]−Cq[internal control])−(Cq[target]−Cq[internal control])).
The potencies of […] and ASO-4.4.PS.L were then examined in iPSC derived-neurons from an Angelman syndrome patient with a maternal derived deletion of the 15q11-q13 region. Induced pluripotent stem cells were differentiated into neurons and then treated with a 10-point ½ log dose response curve of ASO-6.1.PO-1.O and ASO-4.4.PS.L [1 nM, 3 nM, 10 nM, 30 nM, 100 nM, 300 nM, 1 μM, 3 μM, 10 μM, and 30 μM (n=3)]. Six days following treatment, the steady state RNA levels of UBE3A-AS were measured and dose response curves were fitted as described above (FIG. 9A). […] The Emax values were similar (30 μM: ASO-4.4.PS.L=0.01±0.0007; ASO-6.1.PO-1.O=0.05±0.004) but not considered equivalent due to the confidence intervals [ASO-6.1.PO-1.O/ASO-4.4.PS.L Emax ratio: =−9.1 (Lower confidence limit=−224; Upper confidence limit=205)].
Angelman syndrome induced pluripotent stem cells derived neurons Angelman syndrome iPS cells (AG1-0 iPSCs) (ECN001, Kerafast, Boston, Mass.) were co-cultured on irradiated murine embryonic fibroblasts in human embryonic stem cell medium [DMEM/F12 (11330-057, Gibco Biosciences, Dublin, Ireland), 20% Knockout Serum Replacement (10828-028, Thermo Fisher Scientific), 1× Non-essential amino acids, 2 mM L-glutamine, […] 2-Mercaptoethanol, and 4 μg/mL basic Fibroblast Growth Factor]. For the first passage, AG1-0 cells were passaged according to the product manual for PluriSTEM Human ES/iPS Medium (SCM130, Millipore Sigma, Burlington, Mass.), which is feeder-free and utilizes Dispase II (SCM133, Millipore Sigma) to dissociate cells. Matrigel™ hESC-qualified Matrix (354277, Corning BD Biosciences, Corning, N.Y.) was used as an extracellular matrix. At the second passage, the matrix was switched to vitronectin (CC130, Millipore Sigma). During subsequent passages, areas of differentiation were manually removed until differentiated cells represented approximately <5% of the colonies. After four subsequent passages, AG1-0 cells were differentiated using the Millipore ES/iPS Neurogenesis Kit (SCR603, SCM110, and SCM111) but lacking vitronectin as an extracellular matrix. The initial passage was performed with EZ-LiFT (SCM139, Millipore Sigma) to obtain high quality iPS cells. Neural progenitor cells were frozen at stage zero (P0) and subsequently thawed for differentiation. Differentiation was performed on sterile culture plates coated with poly-D-lysine (10 μg/mL) and laminin [10 μg/mL (23017-015, Gibco) in differentiation medium (SCM111) for 10 days of differentiation. […]

UBE3A-AS [2] = assay: UBE3A-AS steady state RNA (TaqMan qRT-PCR) in GABAergic iPSC-derived neurons; conditions: for Relative Potency: relative to ASO-4.4.PS.L = 1
SNORD116 = SNORD116 steady state RNA (qRT-PCR) in GABAergic iPSC-derived neurons; conditions: 10-point dose curve 1 nM-30 μM; 14 DIV to 20 DIV
From the text: The effects of ASO-4 and Topotecan were then examined on the SNORD116, IPW, SNORD115, and SNORD109A RNAs, which are located upstream of the ASO-4 target region (see FIG. 1A).
GABAergic and glutamatergic induced pluripotent stem cell (iPSC) derived neural precursor cells (NRC-100-010-001 and GNC-301-030-001, Cellular Dynamics International, Madison Wis.) were differentiated into neurons according to the manufactures protocol. Briefly, neural precursor cells were thawed and resuspended in chemically defined medium and added to sterile-culture plates coated with poly-D-lysine and laminin. The medium was replaced 24 hr after plating and then one-half of the medium was replaced every 3-5 days afterwards.
For cultured iPSC-derived neurons, RNA isolation and cDNA synthesis were performed using the Cell-to-CT kit (Thermo Fisher Scientific) in a lysate volume of 55 μl.
The steady state RNA levels of target transcripts were measured using TaqMan quantitative reverse-transcription PCR (qRT-PCR) assays. […] Cycling conditions were 2 minutes at 50° C., 10 minutes at 95° C., and 40 cycles of 15 seconds at 95° C. and 1 minute at 60° C., with readings taken at the 60° C. step of every cycle. […] Data was retrieved and analyzed with the BIORAD CFX Maestro software (Bio-Rad Laboratories). […]

[3] = Cluster 1 ASOs, 18 DIV to 24 DIV, parallel model, 4 Parameter logistic (Hill)
[4] = candidate ASOs, 18 DIV to 24 DIV
[5] = candidate ASOs, 18 DIV to 24 DIV, 4-parameter logistic (Hill)
[6] = candidate ASOs, treated 18 DIV, RNA 24 DIV, 10-point dose curve, n=2, full model, 4-parameter logistic (Hill)

| ASO-6.1.PO-1.O/ASO-4.4.PS.L IC50 ratio (UBE3A-AS [1]; equivalence test) | IC50 Ratio relative to ASO-4.4.PS.L (UBE3A-AS [2]; Cluster 1 ASOs, equivalence, two one-sided tests) | Limit Exceeded (equivalence of IC50 relative to ASO-4.4.PS.L) (UBE3A-AS [2]; Cluster 1 ASOs, two one-sided tests) | Compound | Emax, normalized UBE3A-AS RNA level at 30 μM (UBE3A-AS [1]) | ASO-6.1.PO-1.O/ASO-4.4.PS.L Emax ratio (UBE3A-AS [1]; equivalence test) | IC50 (UBE3A-AS [1]) | IC50 (UBE3A-AS [2]; [3]) | Relative Potency (UBE3A-AS [2]; Cluster 1 ASOs, parallel model) | 30 μM (Mean), normalized UBE3A-AS RNA level relative to vehicle (UBE3A-AS [2]; [4]) | Emax (normalized UBE3A-AS RNA level relative to vehicle) (UBE3A-AS [2]; [5]) | IC50 (UBE3A-AS [2]; [6]) | fold more potent than ASO-6.1.PO-1.O (UBE3A-AS [1]) | effect on SNORD116 RNA levels (in words) (SNORD116) |
| --- | --- | --- | --- | --- | --- | --- | --- | --- | --- | --- | --- | --- | --- |
| 0.96 | 0.86 | Lower | C^O*U^O*G^O*G^O-t*g*t*c*a*a*c*a*a*g-C^O*C^O*A^O*A^o [ASO-6.1.PO-1.O] | 0.05±0.004 | −9.1 | 1220 nM | 199 nM | 0.3 | 0.04 | −0.1 | 315 nM |  |  |
|  |  |  | A^L*G^L*A^L*a*t*g*g*c*a*c*a*t*c*t*5mC^L*T^L*T^L*G^L (NNNATGGCACATCTNNNN; LNA gapmer, PS, 5-methylcytosine, chemistry not fully specified) [ASO-4.4.PS.L] | 0.01±0.0007 |  | 437 nM | 50.3 nM | 1 | 0.05 | 0.0 | 26.6 nM | approximately 2.7 fold |  |
|  |  |  | CC[C@@]1(O)C(=O)OCc2c1cc1n(c2=O)Cc2cc3c(CN(C)C)c(O)ccc3nc2-1 [Topotecan, reference compound] |  |  |  |  |  |  |  |  |  | significant effect on SNORD116, IPW, SNORD115, and SNORD109A/B RNA levels that was dose dependent |
